pIC50: −log10 of the molar value. Calls of active or inactive are those of the source. The rule behind the calls is not given here.
Legend:
[1] = test system: Human gammaherpesvirus 4; experiment: Antiviral activity against Epstein-Barr virus; assay type: functional, organism-based
[2] = test system: Human immunodeficiency virus; experiment: Antiviral activity against HIV; assay type: functional, organism-based; details: Human immunodeficiency virus 1
[3] = test system: Hepatitis B virus; experiment: Antiviral activity against HBV assessed as inhibition of viral replication; assay type: functional, organism-based
[4] = test system: Hepatitis C virus; experiment: Antiviral activity against hepatitis C virus; assay type: functional, organism-based, Hepacivirus hominis
[5] = test system: Human alphaherpesvirus 1; experiment: Antiviral activity against HSV1; assay type: functional, organism-based
[6] = test system: Hepatitis B virus; experiment: Inhibition of HBV promoter in human HepG2 cells by luciferase reporter gene assay; assay type: functional, organism-based
[7] = test system: Hepatitis B virus; experiment: Inhibition of HBV promoter in human HepG2(2.2.15) cells by luciferase reporter gene assay; assay type: functional, organism-based
[8] = test system: human papillomavirus 11; experiment: Antiviral activity against human papilloma virus 11; assay type: functional, organism-based
[9] = test system: Hepatitis B virus; experiment: Effect on virus RNA stability on doxycyclin-induced HBV pre genomic RNA production in Met-On-TRE HBV cells treated with 3 uM drug after doxycycline removal; assay type: functional, organism-based
[10] = test system: Hepatitis B virus; experiment: Antiviral activity against HBV in ayw wild type HepG2(2.2.15) cells assessed as inhibition of viral DNA replication; assay type: functional, organism-based
[11] = Cytotoxicity against HBV transfected human adriamycin-resistant HepD2 cells with RTM20V and RTV180M mutation by MTT assay; assay type: cell-based
[12] = test system: Hepatitis B virus; experiment: Antiviral activity against HBV in mouse ayw wild type HBV-Met cells assessed as inhibition of viral DNA replication; assay type: functional, organism-based
[13] = test system: Hepatitis B virus; experiment: Antiviral activity against HBV in human HepG2(2.2.15) cells assessed as inhibition of viral pre-genomic RNA replication; assay type: functional, organism-based
[14] = Cytotoxicity against HBV transfected human ayw wild type HepG2(2.2.15) cells by MTT assay; assay type: cell-based; details: HBV-transfected ayw wild type HepG2(2.2.15) cells
[15] = test system: Hepatitis B virus; experiment: Antiviral activity against HBV in human HepW10 cells assessed as inhibition of viral pre genomic RNA replication; assay type: functional, organism-based
[16] = Cytotoxicity against HBV transfected human adriamycin-resistant wild type HepW10 cells by MTT assay; assay type: cell-based
[17] = test system: Hepatitis B virus; experiment: Antiviral activity against HBV in HBV-Met cells assessed as inhibition of viral pre genomic RNA replication; assay type: functional, organism-based
[18] = test system: Hepatitis B virus; experiment: Antiviral activity against HBV in human HepW10 cells assessed as inhibition of viral 2.4/2.1RNA replication; assay type: functional, organism-based
[19] = Cytotoxicity against HBV transfected human HepG2 cells by MTT assay; assay type: cell-based
[20] = test system: Hepatitis B virus; experiment: Antiviral activity against HBV in human HepG2(2.2.15) cells assessed as inhibition of viral 2.4/2.1RNA replication; assay type: functional, organism-based
[21] = test system: Hepatitis B virus; experiment: Antiviral activity against HBV in mouse HBV-Met cells assessed as inhibition of viral 2.4/2.1RNA replication; assay type: functional, organism-based
[22] = test system: Hepatitis B virus; experiment: Antiviral activity against HBV in adriamycin-resistant HepD2 cells with RTM20V and RTV180M mutation assessed as inhibition of viral DNA replication; assay type: functional, organism-based
[23] = test system: Hepatitis B virus; experiment: Antiviral activity against HBV in human HepD2 cells assessed as inhibition of viral pre genomic RNA replication; assay type: functional, organism-based
[24] = test system: Hepatitis B virus; experiment: Antiviral activity against HBV in human HepD2 cells assessed as inhibition of viral 2.4/2.1RNA replication; assay type: functional, organism-based
[25] = test system: Hepatitis B virus; experiment: Antiviral activity against HBV in adriamycin-resistant wild type HepW10 cells assessed as inhibition of viral DNA replication; assay type: functional, organism-based
[26] = test system: Hepatitis B virus; experiment: Decrease in HBV DNA level in human HepG2 cells at 2 uM after 48 hrs by time course study; assay type: functional, organism-based
[27] = test system: HepG2; experiment: Decrease in binding of HBV promoter preC/C-EnhII to FTF2 in human HepG2 cells; assay type: cell-based
[28] = test system: HepG2; experiment: Decrease in binding of HBV promoter preC/C-EnhII to HNF4-1 in human HepG2 cells; assay type: cell-based
[29] = test system: HepG2; experiment: Decrease in binding of HBV promoter preC/C-EnhII to HNF4-2 in human HepG2 cells; assay type: cell-based
[30] = test system: HepG2 2.2.15; experiment: Decrease in binding of HBV promoter preC/C-EnhII to human FTF in HepG2(2.2.15) cells; assay type: cell-based
[31] = test system: Hepatitis B virus; experiment: Decrease in HBV protein level in human HepG2 cells at 2 uM after 18 to 24 hrs by time course study; assay type: functional, organism-based
[32] = test system: HepG2; experiment: Down regulation of HNH3-beta in human HepG2 cells expressing HBV at 0.3 uM by Western blotting; assay type: functional, cell-based
[33] = test system: HepG2 2.2.15; experiment: Decrease in binding of HBV promoter preC/C-EnhII to human HNF4-1 in HepG2(2.2.15) cells; assay type: cell-based
[34] = test system: HepG2 2.2.15; experiment: Decrease in binding of HBV promoter preC/C-EnhII to human HNF4-2 in HepG2(2.2.15) cells; assay type: cell-based
[35] = Down regulation of HNH3-alpha mRNA in human HepG2(2.2.15) cells expressing HBV at 0.3 uM by Northern blotting; assay type: functional, cell-based
[36] = test system: Hepatitis B virus; experiment: Effect on HBV viral core protein degradation on cyclohexamide terminated cellular protein synthesis in human HepG2(2.2.15) cells at 0.3 uM; assay type: functional, organism-based
[37] = test system: Hepatitis B virus; experiment: Decrease in HBV RNA in human HepG2 cells at 2 uM after 18 to 24 hrs by time course study; assay type: functional, organism-based
[38] = test system: HepG2; experiment: Decrease in binding of HBV promoter preC/C-EnhII to HNF3 in human HepG2 cells; assay type: cell-based
[39] = Down regulation of HNH3-beta in human HepG2(2.2.15) cells expressing HBV at 0.3 uM by Western blotting; assay type: functional, cell-based
[40] = test system: HepG2; experiment: Down regulation of HNH4-alpha in human HepG2 cells expressing HBV at 0.3 uM by Western blotting; assay type: functional, cell-based
[41] = Down regulation of HNH4-alpha in human HepG2(2.2.15) cells expressing HBV at 0.3 uM by Western blotting; assay type: functional, cell-based
[42] = test system: HepG2 2.2.15; experiment: Decrease in binding of HBV promoter preC/C-EnhII to human HNF3 in HepG2(2.2.15) cells; assay type: cell-based
[43] = test system: Hepatitis B virus; experiment: Effect on virus RNA stability on doxycyclin-induced HBV pre genomic RNA production in Met-On-TRE HBV cells treated with 0.3 uM drug after doxycycline removal; assay type: functional, organism-based
[44] = test system: Cytomegalovirus; experiment: Inhibition of CMV promoter in human HepG2(2.2.15) cells by luciferase reporter gene assay after 16 to 24 hrs; assay type: functional, organism-based; details: TDE = time-dependent effect

## O=C1NCc2c1cc1ccc3c(c1c2-c1ccc2c(c1)OCO2)OCO3
[1]
  pIC50: 4.96
[2]
  pIC50: 5.40
[3]
  pIC50: 7.10
[4]
  pIC50: 6.00
[5]
  pIC50: 6.54
[6]
  pIC50: < 6.00
[7]
  pIC50: 7.10
[8]
  pIC50: 6.70

## Nc1ccn([C@@H]2CS[C@H](CO)O2)c(=O)n1 [LAMIVUDINE]
[9]
  Activity: inactive
[10]
  pIC50: 7.30
[11]
  CC50: > 100000 nM
[12]
  pIC50: 6.70
[13]
  Activity: inactive
[14]
  CC50: > 100000 nM
[15]
  Activity: inactive
[16]
  CC50: > 100000 nM
[17]
  Activity: inactive
[18]
  Activity: inactive
[19]
  CC50: 100000 nM
[20]
  Activity: inactive
[21]
  Activity: inactive
[6]
  pIC50: < 6.00
[22]
  pIC50: < 5.52
[23]
  Activity: inactive
[7]
  pIC50: 7.10
[24]
  Activity: inactive
[25]
  pIC50: 7.00

## O=c1[nH][nH]c(=O)c2c(-c3ccc4c(c3)OCO4)c3c4c(ccc3cc12)OCO4
[10]
  pIC50: 7.10
[11]
  CC50: 12000 nM
[26]
  Activity: Active
[12]
  pIC50: 6.52
[1]
  pIC50: < 4.60
[13]
  pIC50: 6.52
[14]
  CC50: 9000 nM
[27]
  Activity: Active
[15]
  pIC50: 6.40
[28]
  Activity: inactive
[29]
  Activity: inactive
[30]
  Activity: Active
[16]
  CC50: 13000 nM
[17]
  pIC50: 6.30
[2]
  pIC50: 4.82
[3]
  pIC50: 7.00
[18]
  pIC50: < 5.52
[31]
  Activity: Active
[32]
  Activity: Active
[19]
  CC50: 29000 nM
[33]
  Activity: Active
[34]
  Activity: Active
[20]
  pIC50: 6.05
[4]
  pIC50: 5.00
[35]
  Activity: inactive
[36]
  Activity: inactive
[5]
  pIC50: 5.92
[21]
  pIC50: 6.00
[37]
  Activity: Active
[6]
  pIC50: < 6.00
[38]
  Activity: inactive
[22]
  pIC50: 7.52
[23]
  pIC50: 7.05
[7]
  pIC50: 7.10
[24]
  pIC50: 5.82
[39]
  Activity: Active
[40]
  Activity: inactive
[41]
  Activity: Active
[8]
  pIC50: 5.24
[42]
  Activity: Active
[43]
  Activity: inactive
[44]
  Activity: tde
[25]
  pIC50: 6.70

From ChEMBL document CHEMBL1156464, “Unique antiviral mechanism discovered in anti-hepatitis B virus research with a natural product analogue” (Proc Natl Acad Sci U S A, 2007)
